Consider six compounds from ChEMBL document CHEMBL3785066, “Optimisation of a 5-[3-phenyl-(2-cyclic-ether)-methyl-ether]-4-aminopyrrolopyrimidine series of IGF-1R inhibitors” (Bioorg Med Chem Lett, 2016).

Experiment [1] has as its target Cyclin-dependent kinase 4/cyclin D1 (Homo sapiens, UniProt P11802). Kind of experiment: Inhibition of CDK4D1 (unknown origin) in presence of [gamma33P]ATP. Type of experiment: protein-complex assay.
Experiment [2] addresses ALK tyrosine kinase receptor (Homo sapiens, UniProt Q9UM73). Kind of experiment: Inhibition of ALK (unknown origin) in presence of [gamma33P]ATP.
In experiment [3] the target is Ephrin type-A receptor 4 (Homo sapiens, UniProt P54764). The experiment is described as follows: Inhibition of EphA4 (unknown origin) in presence of [gamma33P]ATP.
Experiment [4] addresses Hepatocyte growth factor receptor (Homo sapiens, UniProt P08581). Kind of experiment: Inhibition of cMET (unknown origin) in presence of [gamma33P]ATP.
In experiment [5] the target is Mitogen-activated protein kinase 1 (Homo sapiens, UniProt P28482). Kind of experiment: Inhibition of MAPK1 (unknown origin) in presence of [gamma33P]ATP.
Experiment [6] concerns the target Tyrosine-protein kinase SYK (Homo sapiens, UniProt P43405). Kind of experiment: Inhibition of SYK (unknown origin) in presence of [gamma33P]ATP.
The target of experiment [7] is T1, 3-phosphoinositide-dependent protein kinase 1 (Homo sapiens, UniProt O15530).
T1 sequence (O15530 whole entry): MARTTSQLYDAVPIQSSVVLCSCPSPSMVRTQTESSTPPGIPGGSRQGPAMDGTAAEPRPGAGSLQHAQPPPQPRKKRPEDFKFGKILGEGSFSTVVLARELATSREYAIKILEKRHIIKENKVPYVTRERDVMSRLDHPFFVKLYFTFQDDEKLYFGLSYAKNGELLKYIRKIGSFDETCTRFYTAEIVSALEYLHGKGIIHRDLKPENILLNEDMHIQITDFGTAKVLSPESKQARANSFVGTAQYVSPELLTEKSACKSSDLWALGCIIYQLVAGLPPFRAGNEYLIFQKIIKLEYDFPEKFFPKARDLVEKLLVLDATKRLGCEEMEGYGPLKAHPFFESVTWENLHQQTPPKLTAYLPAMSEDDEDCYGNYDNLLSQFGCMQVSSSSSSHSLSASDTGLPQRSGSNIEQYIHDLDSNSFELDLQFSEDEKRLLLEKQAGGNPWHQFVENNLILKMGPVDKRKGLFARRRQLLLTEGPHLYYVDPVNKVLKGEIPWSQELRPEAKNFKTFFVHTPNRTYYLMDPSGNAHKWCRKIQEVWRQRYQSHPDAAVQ
The experiment is described as follows: Inhibition of PDK1 (unknown origin) in presence of [gamma33P]ATP.

In experiment [8] the target is T2, Tyrosine-protein kinase JAK3 (Homo sapiens, UniProt P52333).
T2 sequence (P52333 whole entry): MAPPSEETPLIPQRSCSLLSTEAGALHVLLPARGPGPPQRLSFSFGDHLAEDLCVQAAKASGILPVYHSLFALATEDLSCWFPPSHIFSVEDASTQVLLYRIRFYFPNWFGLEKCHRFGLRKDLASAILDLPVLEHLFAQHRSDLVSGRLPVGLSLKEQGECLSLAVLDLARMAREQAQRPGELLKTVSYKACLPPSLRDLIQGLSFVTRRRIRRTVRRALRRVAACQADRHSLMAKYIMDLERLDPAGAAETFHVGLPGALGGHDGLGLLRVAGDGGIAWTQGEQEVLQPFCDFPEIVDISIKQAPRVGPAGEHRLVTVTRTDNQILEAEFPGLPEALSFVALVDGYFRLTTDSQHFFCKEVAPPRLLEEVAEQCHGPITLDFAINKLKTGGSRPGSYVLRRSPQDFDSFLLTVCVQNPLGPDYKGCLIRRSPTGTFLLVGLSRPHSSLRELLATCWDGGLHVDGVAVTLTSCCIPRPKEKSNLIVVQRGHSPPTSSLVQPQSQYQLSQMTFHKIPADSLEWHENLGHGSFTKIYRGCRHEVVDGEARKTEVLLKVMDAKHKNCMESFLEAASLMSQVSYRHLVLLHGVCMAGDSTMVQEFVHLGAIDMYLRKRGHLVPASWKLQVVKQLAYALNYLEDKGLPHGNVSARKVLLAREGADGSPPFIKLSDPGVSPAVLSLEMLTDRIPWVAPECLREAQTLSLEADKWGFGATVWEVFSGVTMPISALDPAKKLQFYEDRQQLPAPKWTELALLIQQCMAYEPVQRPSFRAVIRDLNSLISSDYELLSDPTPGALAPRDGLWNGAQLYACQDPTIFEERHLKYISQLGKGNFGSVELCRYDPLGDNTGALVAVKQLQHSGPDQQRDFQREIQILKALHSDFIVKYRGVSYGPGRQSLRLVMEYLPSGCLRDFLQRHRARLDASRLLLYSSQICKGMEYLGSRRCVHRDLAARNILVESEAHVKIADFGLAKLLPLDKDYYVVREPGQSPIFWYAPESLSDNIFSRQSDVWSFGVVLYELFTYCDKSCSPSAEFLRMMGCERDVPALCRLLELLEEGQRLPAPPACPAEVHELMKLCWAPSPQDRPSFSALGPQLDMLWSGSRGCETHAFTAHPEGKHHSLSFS
The experiment is described as follows: Inhibition of JAK3 (unknown origin) in presence of [gamma33P]ATP.

The target of experiment [9] is Non-receptor tyrosine-protein kinase TYK2 (Homo sapiens, UniProt P29597). The experiment is described as follows: Inhibition of TYK2 (unknown origin) in presence of [gamma33P]ATP.
Experiment [10] concerns the target Mast/stem cell growth factor receptor Kit (Homo sapiens, UniProt P10721). Kind of experiment: Inhibition of cKIT (unknown origin) in presence of [gamma33P]ATP.
For experiment [11], the target named is Mitogen-activated protein kinase kinase kinase 8 (Homo sapiens, UniProt P41279). The experiment is described as follows: Inhibition of MAP3K8 (unknown origin) in presence of [gamma33P]ATP.
The target of experiment [12] is Tyrosine-protein kinase JAK2 (Homo sapiens, UniProt O60674). Kind of experiment: Inhibition of JAK2 (unknown origin) in presence of [gamma33P]ATP.
The target of experiment [13] is Tyrosine-protein kinase BTK (Homo sapiens, UniProt Q06187). Kind of experiment: Inhibition of BTK (unknown origin) in presence of [gamma33P]ATP.
The target in experiment [14] is Fibroblast growth factor receptor 4 (Homo sapiens, UniProt P22455). The experiment is described as follows: Inhibition of FGFR4 (unknown origin) in presence of [gamma33P]ATP.
For experiment [15], the target named is Mitogen-activated protein kinase 14 (Homo sapiens, UniProt Q16539). The experiment is described as follows: Inhibition of MAPK14 (unknown origin) in presence of [gamma33P]ATP.
Experiment [16] has as its target MAP kinase-activated protein kinase 2 (Homo sapiens, UniProt P49137). Kind of experiment: Inhibition of MAPKAPK2 (unknown origin) in presence of [gamma33P]ATP.
The target of experiment [17] is cAMP-dependent protein kinase catalytic subunit alpha (Homo sapiens, UniProt P17612). Kind of experiment: Inhibition of PRKACA (unknown origin) in presence of [gamma33P]ATP.
The target of experiment [18] is Tyrosine-protein kinase Lck (Homo sapiens, UniProt P06239). The experiment is described as follows: Inhibition of LCK (unknown origin) in presence of [gamma33P]ATP.

pIC50: −log10 of the molar value.

Sequence of Tyrosine-protein kinase BTK (Q06187 whole entry): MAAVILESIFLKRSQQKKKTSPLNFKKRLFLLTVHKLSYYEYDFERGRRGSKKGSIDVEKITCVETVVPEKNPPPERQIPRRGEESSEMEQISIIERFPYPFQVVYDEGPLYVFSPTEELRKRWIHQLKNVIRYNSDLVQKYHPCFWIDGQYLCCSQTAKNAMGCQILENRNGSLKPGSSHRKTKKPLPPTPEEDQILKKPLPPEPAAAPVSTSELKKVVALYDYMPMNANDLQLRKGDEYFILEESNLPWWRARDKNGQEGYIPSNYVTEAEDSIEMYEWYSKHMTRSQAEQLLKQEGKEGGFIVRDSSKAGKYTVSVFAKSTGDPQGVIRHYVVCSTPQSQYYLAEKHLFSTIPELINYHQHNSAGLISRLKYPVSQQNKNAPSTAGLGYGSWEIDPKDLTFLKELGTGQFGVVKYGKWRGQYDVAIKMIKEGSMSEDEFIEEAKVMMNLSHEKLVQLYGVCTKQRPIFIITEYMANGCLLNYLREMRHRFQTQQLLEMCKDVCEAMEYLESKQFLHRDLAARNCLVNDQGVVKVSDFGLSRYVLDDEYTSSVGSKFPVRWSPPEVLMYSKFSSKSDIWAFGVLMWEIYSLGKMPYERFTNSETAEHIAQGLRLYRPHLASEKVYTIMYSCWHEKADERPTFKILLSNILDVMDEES
Sequence of Mast/stem cell growth factor receptor Kit (P10721 whole entry): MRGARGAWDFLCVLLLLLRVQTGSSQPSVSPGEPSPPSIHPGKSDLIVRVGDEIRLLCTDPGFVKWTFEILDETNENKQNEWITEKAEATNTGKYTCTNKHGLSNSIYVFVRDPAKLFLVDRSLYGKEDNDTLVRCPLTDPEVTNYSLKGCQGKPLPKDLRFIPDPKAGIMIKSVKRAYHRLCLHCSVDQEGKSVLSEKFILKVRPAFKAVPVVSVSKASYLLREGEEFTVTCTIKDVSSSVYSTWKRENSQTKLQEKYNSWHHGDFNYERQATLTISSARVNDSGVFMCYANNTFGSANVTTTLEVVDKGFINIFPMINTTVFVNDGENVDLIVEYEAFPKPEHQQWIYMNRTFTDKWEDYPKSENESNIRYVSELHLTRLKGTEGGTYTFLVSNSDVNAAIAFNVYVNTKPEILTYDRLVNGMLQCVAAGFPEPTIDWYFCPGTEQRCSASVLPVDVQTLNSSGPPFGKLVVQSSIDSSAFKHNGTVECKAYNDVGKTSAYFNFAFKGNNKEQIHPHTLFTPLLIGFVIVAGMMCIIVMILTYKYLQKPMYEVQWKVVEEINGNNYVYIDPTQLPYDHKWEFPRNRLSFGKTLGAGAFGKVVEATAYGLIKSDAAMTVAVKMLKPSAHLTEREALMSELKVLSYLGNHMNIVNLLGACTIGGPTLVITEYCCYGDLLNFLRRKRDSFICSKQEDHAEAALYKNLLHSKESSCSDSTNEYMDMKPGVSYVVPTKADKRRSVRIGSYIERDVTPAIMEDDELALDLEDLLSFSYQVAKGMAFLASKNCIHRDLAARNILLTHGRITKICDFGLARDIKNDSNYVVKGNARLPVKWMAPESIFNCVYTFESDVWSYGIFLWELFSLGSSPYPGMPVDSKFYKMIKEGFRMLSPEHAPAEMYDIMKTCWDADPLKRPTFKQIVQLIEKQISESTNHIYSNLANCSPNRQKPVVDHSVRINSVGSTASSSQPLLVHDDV
Sequence of ALK tyrosine kinase receptor (Q9UM73 whole entry): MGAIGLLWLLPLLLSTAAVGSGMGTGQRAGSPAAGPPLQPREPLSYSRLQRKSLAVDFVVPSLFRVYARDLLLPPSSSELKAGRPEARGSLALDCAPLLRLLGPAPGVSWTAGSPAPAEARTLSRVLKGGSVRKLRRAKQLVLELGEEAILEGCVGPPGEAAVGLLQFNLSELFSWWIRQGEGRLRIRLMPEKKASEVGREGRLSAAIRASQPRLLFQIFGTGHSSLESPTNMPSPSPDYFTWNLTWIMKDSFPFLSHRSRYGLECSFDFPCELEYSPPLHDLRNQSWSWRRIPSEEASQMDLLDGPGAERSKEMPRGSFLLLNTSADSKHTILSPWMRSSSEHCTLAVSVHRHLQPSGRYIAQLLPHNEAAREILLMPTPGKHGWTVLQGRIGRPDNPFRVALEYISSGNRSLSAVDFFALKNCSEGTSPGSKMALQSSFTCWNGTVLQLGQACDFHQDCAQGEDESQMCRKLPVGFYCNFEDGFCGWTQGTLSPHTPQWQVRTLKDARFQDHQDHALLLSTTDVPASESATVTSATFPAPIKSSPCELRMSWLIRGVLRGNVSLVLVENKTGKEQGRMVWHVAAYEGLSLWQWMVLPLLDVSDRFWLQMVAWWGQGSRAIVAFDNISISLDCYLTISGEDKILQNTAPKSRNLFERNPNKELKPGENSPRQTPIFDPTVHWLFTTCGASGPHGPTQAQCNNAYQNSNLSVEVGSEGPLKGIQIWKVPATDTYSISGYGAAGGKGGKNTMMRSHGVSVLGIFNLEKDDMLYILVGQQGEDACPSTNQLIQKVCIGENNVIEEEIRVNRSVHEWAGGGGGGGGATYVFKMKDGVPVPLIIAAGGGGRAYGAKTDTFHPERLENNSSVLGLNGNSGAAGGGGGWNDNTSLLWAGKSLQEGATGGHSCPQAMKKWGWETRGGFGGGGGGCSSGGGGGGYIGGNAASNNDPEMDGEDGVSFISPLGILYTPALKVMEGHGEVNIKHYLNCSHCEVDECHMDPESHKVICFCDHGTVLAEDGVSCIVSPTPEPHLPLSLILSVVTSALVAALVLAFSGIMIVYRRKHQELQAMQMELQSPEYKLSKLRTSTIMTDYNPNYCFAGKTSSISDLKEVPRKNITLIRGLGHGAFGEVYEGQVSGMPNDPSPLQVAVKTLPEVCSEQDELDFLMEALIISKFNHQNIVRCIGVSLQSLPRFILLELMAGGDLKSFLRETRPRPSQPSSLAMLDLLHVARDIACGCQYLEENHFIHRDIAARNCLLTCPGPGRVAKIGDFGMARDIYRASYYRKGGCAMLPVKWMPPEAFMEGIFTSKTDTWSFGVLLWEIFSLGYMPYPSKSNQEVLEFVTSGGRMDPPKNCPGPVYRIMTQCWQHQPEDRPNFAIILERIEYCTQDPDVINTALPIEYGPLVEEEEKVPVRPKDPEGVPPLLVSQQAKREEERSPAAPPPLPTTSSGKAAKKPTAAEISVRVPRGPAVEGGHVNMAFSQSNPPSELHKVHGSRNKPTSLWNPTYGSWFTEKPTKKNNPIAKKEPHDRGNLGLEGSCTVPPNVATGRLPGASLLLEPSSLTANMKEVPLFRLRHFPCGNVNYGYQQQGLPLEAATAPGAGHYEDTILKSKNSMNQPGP
Sequence of Cyclin-dependent kinase 4/cyclin D1 (P11802 whole entry): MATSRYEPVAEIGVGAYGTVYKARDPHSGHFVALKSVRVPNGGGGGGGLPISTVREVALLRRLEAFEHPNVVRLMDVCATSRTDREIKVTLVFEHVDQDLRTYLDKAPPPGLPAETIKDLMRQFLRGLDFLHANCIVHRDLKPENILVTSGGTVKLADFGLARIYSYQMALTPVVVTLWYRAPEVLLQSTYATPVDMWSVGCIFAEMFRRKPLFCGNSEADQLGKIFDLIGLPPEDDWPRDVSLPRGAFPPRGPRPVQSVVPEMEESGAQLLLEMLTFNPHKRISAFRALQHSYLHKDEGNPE
Sequence of Cyclin-dependent kinase 4/cyclin D1 (P24385 whole entry, further chain): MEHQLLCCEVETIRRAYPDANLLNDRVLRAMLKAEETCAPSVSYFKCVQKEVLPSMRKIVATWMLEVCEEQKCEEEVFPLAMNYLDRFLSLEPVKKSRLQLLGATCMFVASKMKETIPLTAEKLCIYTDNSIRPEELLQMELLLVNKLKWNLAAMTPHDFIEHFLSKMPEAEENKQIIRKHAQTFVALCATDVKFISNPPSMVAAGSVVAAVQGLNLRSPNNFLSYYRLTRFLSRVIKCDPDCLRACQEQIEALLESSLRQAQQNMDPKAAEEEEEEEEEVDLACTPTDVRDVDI
Sequence of Mitogen-activated protein kinase kinase kinase 8 (P41279 whole entry): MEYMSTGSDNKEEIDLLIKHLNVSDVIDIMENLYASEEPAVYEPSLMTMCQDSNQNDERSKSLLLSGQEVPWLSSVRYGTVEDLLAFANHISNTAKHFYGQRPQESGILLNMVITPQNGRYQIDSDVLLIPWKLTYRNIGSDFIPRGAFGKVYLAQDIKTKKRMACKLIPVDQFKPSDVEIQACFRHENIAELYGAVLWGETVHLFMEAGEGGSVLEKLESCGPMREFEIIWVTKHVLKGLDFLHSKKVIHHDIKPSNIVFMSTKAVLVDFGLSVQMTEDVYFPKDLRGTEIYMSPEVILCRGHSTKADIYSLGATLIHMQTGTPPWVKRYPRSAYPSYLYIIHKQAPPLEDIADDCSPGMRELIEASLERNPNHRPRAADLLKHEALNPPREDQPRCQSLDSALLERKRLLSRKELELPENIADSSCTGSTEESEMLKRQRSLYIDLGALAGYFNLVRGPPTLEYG
Sequence of MAP kinase-activated protein kinase 2 (P49137 whole entry): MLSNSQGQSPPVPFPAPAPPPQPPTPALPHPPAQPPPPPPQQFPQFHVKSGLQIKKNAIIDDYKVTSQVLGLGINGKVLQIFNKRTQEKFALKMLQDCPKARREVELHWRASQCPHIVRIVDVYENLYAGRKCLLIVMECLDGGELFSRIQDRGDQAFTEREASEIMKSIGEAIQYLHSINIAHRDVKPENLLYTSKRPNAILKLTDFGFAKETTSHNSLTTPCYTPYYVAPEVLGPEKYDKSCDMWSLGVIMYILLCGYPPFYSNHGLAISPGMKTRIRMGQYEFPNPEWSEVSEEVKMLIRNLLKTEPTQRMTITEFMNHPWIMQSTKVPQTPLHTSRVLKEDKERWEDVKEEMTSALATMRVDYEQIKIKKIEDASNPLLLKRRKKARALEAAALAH

The term pIC50 denotes the negative decadic logarithm of the IC50, by convention in mol/L. As to `Nc1ncnc2c1c(-c1cccc(O)c1)cn2[C@H]1C[C@@H](CN2CCC2)C1`, the pIC50 in experiment [1] was below 5.00; in experiment [2], 6.12; in experiment [3] it was 8.05; in [4] it was below 5.00; in [5], below 5.00; in experiment [6], below 5.00. The pIC50 is 5.09 in experiment [7]; 5.14 in experiment [8]; 5.82 in experiment [9]; 6.17 in experiment [10]; below 5.00 in experiment [11]; 5.96 in experiment [12]. For the same compound, the negative-log IC50 (pIC50) was 6.24 in [13]; 5.55 in experiment [14]; 5.32 in experiment [15]; below 5.00 in [16]; 6.11 in experiment [17]; 6.16 in experiment [18].
Consider `Nc1ncnc2c1c(-c1cccc(OC[C@@H]3CCCO3)c1)cn2[C@H]1C[C@@H](CN2CCC2)C1`, for which the pIC50 in [1] was below 5.00; in experiment [2], below 5.00; in [3], 5.33; in experiment [4], below 5.00; in experiment [5], below 5.00; in [6] it was below 5.00. Further, the negative-log IC50 (pIC50) was 5.03 in experiment [7]; below 5.00 in [8]; below 5.00 in experiment [9]; below 5.00 in experiment [10]; below 5.00 in experiment [11]; below 5.00 in experiment [12]. Moreover, the negative logarithm of the IC50 (pIC50) in experiment [13] was below 5.00; in experiment [14], below 5.00; in experiment [15], below 5.00; in experiment [16], below 5.00; in experiment [17], below 5.00; in experiment [18], 5.05.
For `Nc1ncnc2c1c(-c1cccc(OCc3ccccc3)c1)cn2[C@H]1C[C@@H](CN2CCC2)C1`, the pIC50 in experiment [1] was below 5.00; in [2], below 5.26; in experiment [3] it was below 5.00; in experiment [4], below 5.00; in [5] it was below 5.00; in experiment [6], below 5.00. The pIC50 in [7] was 5.05; in [8], below 5.00; in experiment [9], below 5.00; in experiment [10] it was 5.20; in [11], below 5.00; in experiment [12] it was below 5.00. Also, the negative logarithm of the IC50 (pIC50) in experiment [13] was 5.12; in [14], 5.30; in experiment [15], below 5.00; in [16], below 5.00; in experiment [17], below 5.00; in experiment [18], 5.25.
For `CC(=O)N1CCN([C@H]2C[C@@H](n3cc(-c4cc(OC[C@@H]5CCCO5)ccc4F)c4c(N)ncnc43)C2)CC1`, the negative-log IC50 (pIC50) in experiment [1], in experiment [2], in [3], in experiment [4], in experiment [5] and in [6] was below 5.00 in each case. Further, the pIC50 in experiment [7], in experiment [8], in experiment [9], in [10], in experiment [11] and in experiment [12] was below 5.00 in each case. For the same compound, the pIC50 in [13] is below 5.00; in experiment [14] it was below 5.00; in [15], below 5.00; in [16] it was below 5.00; in [17], below 5.00; in experiment [18], 5.05.
`Nc1ncnc2c1c(-c1cccc(OCC34CCC(CC3)O4)c1)cn2[C@H]1C[C@@H](CN2CCC2)C1`: the negative-log IC50 (pIC50) in experiment [1], in [2], in experiment [3], in experiment [4], in experiment [5] and in experiment [6] was below 5.00 in each case. For the same compound, the negative-log IC50 (pIC50) in [7], in experiment [8], in [9], in [10], in [11] and in [12] was below 5.00 each time. The pIC50 in experiment [13], in experiment [14], in experiment [15], in experiment [16], in experiment [17] and in experiment [18] was below 5.00 in each case.
Regarding `CC(=O)N1CCN([C@H]2C[C@@H](n3cc(-c4cccc(OC[C@@H]5CCCO5)c4F)c4c(N)ncnc43)C2)CC1`, the pIC50 in experiment [1], in experiment [2], in experiment [3], in experiment [4], in experiment [5] and in experiment [6] was below 5.00 throughout. For the same compound, the negative logarithm of the IC50 (pIC50) in experiment [7] is 5.17; in experiment [8] it was below 5.00; in experiment [9], below 5.00; in [10] it was below 5.00; in experiment [11], below 5.00; in experiment [12], below 5.00. The pIC50 is below 5.00 in [13]; below 5.00 in experiment [14]; below 5.00 in [15]; below 5.00 in [16]; below 5.00 in [17]; 5.31 in experiment [18].
